Patent US20260184700A1, “PDK1 REGULATORY COMPOUND AND COMPOSITION CONTAINING THE SAME” (PROVIBIO CO., LTD., priority 2024, published 2026)

Experiments:
[1] = system: Human B Lymphocyte cell line, SU-DHL-8; assay: Relative cell viability, CCK-8, SU-DHL-8; format: cell-based; details: 48 hours
Method: Human-derived B lymphoma cell line SU-DHL-8 (Cat. #CRL-2961) purchased from ATCC was cultured in RPMI-1640 medium containing 10% FBS, 100 U/mL penicillin, and 100 μg/mL streptomycin.
The cell culture medium was then harvested, centrifuged at 1,300 rpm for 5 minutes, and the supernatant was removed. The cells were resuspended in the same medium and dispensed into a 96-well plate (Costar 96-well cell culture plate, Corning) at 90 μL per well, resulting in the conditions specified in Table 5.
Then, 10 μL of CCK-8 was added to each well, and the plates were incubated again at 37° C. in a 5% CO2 incubator for 4 hours.
In other words, when the survival rate of untreated cells (DMSO) is set at 100%, the relative cell survival rate in each group treated with the drug at different concentrations is indicated.

[2] = system: skin-grafted C57BL/6 mice; assay: Skin graft animal model (BALB/c donor, C57BL/6 recipient); format: in vivo, mouse; details: GO88 0.15 mg/kg twice daily
Method: To evaluate the immune-suppressive effects of the compounds according to the present invention, a skin graft animal model was established, and the efficacy of the compounds was analyzed in the model.
First, female BALB/c mice aged 7 weeks and weighing approximately 20 g were used as donor animals, and female C57BL/6 mice of the same age and weight were used as recipient animals. All experimental animals were supplied by HanabioTech Co., Ltd.
Prior to the experiment, the animals were acclimatized in SPF-certified facilities for one week and then used in the experiment. The housing conditions were maintained at a temperature of 22±2° C., relative humidity of 55±10%, and a 12-hour light-dark cycle.
To establish the skin graft model, a anesthetic solution consisting of ketamine, […], and PBS in a volume ratio of 1:1:3 was administered intraperitoneally to C57BL/6 mice to induce anesthesia.
The hair on the dorsal side of the anesthetized mice was removed and disinfected, followed by excision of the full-thickness skin using an 8 mm punch. Subsequently, skin of the same size was harvested from donor mice (BALB/c) and transplanted. […]
Subsequently, the proportions of CD3- and B220-positive cells were analyzed using a flow cytometer.

[3] = system: bleomycin-treated Balb/c mice; assay: Bleomycin-induced pulmonary fibrosis animal model; format: in vivo, mouse; details: bleomycin mice lung, vs BLM-treated group
Text: To evaluate the therapeutic efficacy of the compound according to the present invention against pulmonary fibrosis, an animal model of pulmonary fibrosis induced by bleomycin intratracheal administration was established.
For this purpose, 8-week-old male Balb/c mice were subjected to general anesthesia using an inhalation anesthetic (2-3% isoflurane in oxygen), followed by disinfection of the neck region, skin incision, and exposure of the trachea.
Bleomycin (Sigma-Aldrich, USA) was directly administered into the trachea at a concentration of 5 mg/kg in a solution of 100 μL.
Two days prior to Bleomycin administration, the compound of the present invention or the comparative drug was administered intraperitoneally at the specified concentration and dose, and the administration was continued once daily for a total of 14 days.
The experimental groups included Normal, Bleomycin alone (BLM), and BLM plus the compound of the present invention (BLM+GO88, 0.2 mg/kg).
Ten days later, the mice were euthanized humanely using carbon dioxide gas, the trachea was incised, and PBS was injected into the trachea to remove blood from the lungs.
The lung tissue washed with PBS was excised, fixed in 4% paraformaldehyde solution for 24 hours, and then paraffin blocks and tissue sections were prepared. The prepared sections were subjected to pathological analysis using H & E, Masson's trichrome, and Sirius red staining.
Additionally, immunohistochemical (IHC) staining was performed for α-SMA (α-smooth muscle actin), an indicator of lung fibroblast activation.

[4] = system: Collagen I in human lung fibroblasts MRC-5; assay: TGF-β-induced Collagen I expression in MRC-5 cells, Western blot; format: cell-based; details: MRC-5, TGF-β (5 ng/ml), GO88 0.5 μM and 1 μM, 24 hours
Method: To confirm that the compound of the present invention directly acts on fibrosis-related mechanisms, in vitro experiments were performed using human lung fibroblasts MRC-5 cell lines (Korea Cell Bank).
First, MRC-5 cells were seeded at 5×10^3 cells per well in a 6-well plate and stabilized for 24 hours.
Subsequently, experimental groups were established, including a control group, a group treated with TGF-β (5 ng/ml) alone, and groups treated with TGF-β and the compound GO88 from the present invention at concentrations of 0.5 μM and 1 μM, respectively.
After treating each group with the drugs for 24 hours, the cell medium was removed, and the cells were washed twice with cold PBS. Then, RIPA lysis buffer containing phosphatase inhibitor and protease inhibitor was added to each group to extract proteins.
The extracted proteins were incubated at 4° C. for 30 minutes, then centrifuged at 13,000 rpm for 15 minutes, and the supernatant was collected. The total protein concentration was measured using the BCA protein quantification method.
Subsequently, the proteins were separated by SDS-PAGE, transferred to a PVDF membrane, and Western blot analysis was performed.
The expression levels of Collagen I, a marker related to pulmonary fibrosis, were confirmed, with GAPDH used as an internal control.

Row | SMILES | Relative cell viability (%) ([1]; SU-DHL-8, 1 μM) | Relative cell viability (%) ([1]; SU-DHL-8, 10 μM) | Relative cell viability (%) ([1]; SU-DHL-8, 30 μM) | Relative cell viability (%) ([1]; SU-DHL-8, 50 μM) | animals with graft pinkening and good blood flow ([2]; day 10 post-transplantation) | animals with graft pinkening and good blood flow ([2]; day 15 post-transplantation) | collagen deposition (Masson's trichrome and Sirius red staining) [3] | expression of α-SMA (IHC) [3] | protein expression of Collagen I [4]
1 | CC1(C)CN(CCCCCCCCCCCCC(=O)Nc2nc(N)c3[nH]cnc3n2)CCO1 [Compound 11, 12-[4-(2,2-dimethylmorpholin-4-yl)]dodecyl-N-(6-aminopurine-2-yl)carboxamide] | 7.63% | 6.09% | 4.82% | 3.29% | – | – | – | – | –
2 | Nc1ncccc1C(=O)NCCCCCCCCCCCCN1CCNCC1 [Compound 14, 2-Amino-N-(12-(piperazin-1-yl)dodecyl)nicotinamide] | – | – | – | – | three out of five animals | one out of five animals | significantly reduced | significantly suppressed | inhibited in a concentration-dependent manner
